Counter-ions that a name gives are not always drawn. Like-named read-outs stand apart in the source and are kept apart here.

What all share (test): AK assay 384-well format, Prestwick library screening
One experiment deals with E. faecium. It counts as cell-based, Enterococcus faecium. Particulars: for fold induction at 50 µM: Enterococcus faecium, 3 h.
For the next experiment, the system named is E. coli. In kind it is cell-based, Escherichia coli. The settings on record: for fold induction at 50 µM: Escherichia coli, 3 h.
For another experiment, the system named is E. cloacae. It counts as cell-based, Enterobacter cloacae. The settings on record: for fold induction at 50 µM: Enterobacter cloacae, 3 h.
The next experiment has as its system K. pneumoniae. It counts as cell-based, Klebsiella pneumoniae. Particulars: for fold induction at 50 µM: Klebsiella pneumoniae, 3 h.
The test system of a further experiment is P. aeruginosa. It counts as cell-based, Pseudomonas aeruginosa. The settings on record: for fold induction at 50 µM: Pseudomonas aeruginosa, 3 h.
Experiment [1] has as its system S. aureus strain USA300-0114. It counts as cell-based, Staphylococcus aureus. The settings on record: for fold induction at 50 µM: Staphylococcus aureus, USA300, 3 h.
In experiment [2] the test system is A. baumannii strain 98-37-09. It counts as cell-based, Acinetobacter baumannii. Particulars: for fold induction at 50 µM: Acinetobacter baumannii, 983709, 3 h.
The mark [3] stands for this setting: 50 μM final drug concentration, planktonic, […].
The mark [4] stands for this setting: planktonic E. faecium, 50 μM final drug concentration, 384-well, cutoff for positive-scoring molecules 3-fold increase, read-out: AK-based Prestwick Library Screening Results: E. faecium (increase in extracellular AK activity).
Where [5] appears, read: planktonic E. coli, 50 μM final drug concentration, 384-well, cutoff for positive-scoring molecules 3-fold increase, read-out: AK-based Prestwick Library Screening Results: E. coli (increase in extracellular AK activity).
[6] abbreviates: planktonic E. cloacae, 50 μM final drug concentration, 384-well, cutoff for positive-scoring molecules 3-fold increase, read-out: AK-based Prestwick Library Screening Results: E. cloacae (increase in extracellular AK activity).
Where [7] appears, read: planktonic K. pneumoniae, 50 μM final drug concentration, 384-well, cutoff for positive-scoring molecules 3-fold increase, read-out: AK-based Prestwick Library Screening Results: K. pneumoniae (increase in extracellular AK activity).
Where [8] appears, read: planktonic P. aeruginosa, 50 μM final drug concentration, 384-well, cutoff for positive-scoring molecules 3-fold increase, read-out: AK-based Prestwick Library Screening Results: P. aeruginosa (increase in extracellular AK activity).
Setting [9] is: planktonic S. aureus, 50 μM final drug concentration, 384-well, cutoff for positive-scoring molecules 3-fold increase, read-out: AK-based Prestwick Library Screening Results: S. aureus (increase in extracellular AK activity).
Setting [10] is: planktonic A. baumannii, 50 μM final drug concentration, 384-well, cutoff for positive-scoring molecules 3-fold increase, read-out: AK-based Prestwick Library Screening Results: A. baumannii (increase in extracellular AK activity).
[11] abbreviates: planktonic E. coli, 50 μM final drug concentration, […].

On to `NCCCCCC(=O)O` [Aminocaproic acid], for which the fold induction at 50 µM turned out to be 1.1 in the experiment on E. faecium (read-out: AK-based Prestwick Library Screening Results, E. faecium (fold increase in extracellular AK activity)); 1.2 in the experiment with E. coli (read-out: AK-based Prestwick Library Screening Results, E. coli (fold increase in extracellular AK activity)); 1.6 in the experiment on E. cloacae (read-out: AK-based Prestwick Library Screening Results, E. cloacae (fold increase in extracellular AK activity)); 1.2 in the experiment on K. pneumoniae (read-out: AK-based Prestwick Library Screening Results, K. pneumoniae (fold increase in extracellular AK activity)); 1.1 in the experiment on P. aeruginosa (read-out: AK-based Prestwick Library Screening Results, P. aeruginosa (fold increase in extracellular AK activity)); 1.2 in experiment [1] (read-out: AK-based Prestwick Library Screening Results, S. aureus (fold increase in extracellular AK activity)). For the same compound, the fold induction at 50 µM in experiment [2] (read-out: AK-based Prestwick Library Screening Results, A. baumannii (fold increase in extracellular AK activity)) amounted to 1.3.

As to `COC1=C[C@@H]2C3=C([C@@H]2C1=O)[C@@H](NC(C)=O)CCc1cc(OC)c(OC)c(OC)c13` [Lumicolchicine gamma], the “AK-based Prestwick Library Screening Results, E. faecium (fold increase in extracellular AK activity)” value in the experiment on E. faecium (setting [3]) worked out at 1.0. In addition, the “AK-based Prestwick Library Screening Results, E. coli (fold increase in extracellular AK activity)” value in the experiment with E. coli (setting [3]) is given as 1.1. The “AK-based Prestwick Library Screening Results, E. cloacae (fold increase in extracellular AK activity)” value with E. cloacae (setting [3]) was determined as 1.4. For the same compound, in the experiment with K. pneumoniae (setting [3]), the “AK-based Prestwick Library Screening Results, K. pneumoniae (fold increase in extracellular AK activity)” value was determined as 1.0. Also, in the experiment with P. aeruginosa (setting [3]), the “AK-based Prestwick Library Screening Results, P. aeruginosa (fold increase in extracellular AK activity)” value is listed as 1.1. Further, the “AK-based Prestwick Library Screening Results, S. aureus (fold increase in extracellular AK activity)” value in experiment [1] (setting [3]) is on record as 0.9. In addition, the “AK-based Prestwick Library Screening Results, A. baumannii (fold increase in extracellular AK activity)” value in experiment [2] (setting [3]) is recorded as 1.2.

Regarding `CCCCC[C@H](O)/C=C/[C@H]1[C@H](O)CC(=O)[C@@H]1CCCCCCC(=O)O` [Alprostadil], the fold induction at 50 µM in the experiment on E. faecium (planktonic E. faecium, 50 μM final drug concentration, positive cutoff 3-fold increase, read-out: AK-based Prestwick library screening result, E. faecium (fold increase in extracellular AK activity)) came to 1; in the experiment on E. coli (planktonic E. coli, 50 μM final drug concentration, positive cutoff 3-fold increase, read-out: AK-based Prestwick library screening result, E. coli (fold increase in extracellular AK activity)), 1.3; with E. cloacae (planktonic E. cloacae, 50 μM final drug concentration, positive cutoff 3-fold increase, read-out: AK-based Prestwick library screening result, E. cloacae (fold increase in extracellular AK activity)) it was 1.4; with K. pneumoniae (planktonic K. pneumoniae, 50 μM final drug concentration, positive cutoff 3-fold increase, read-out: AK-based Prestwick library screening result, K. pneumoniae (fold increase in extracellular AK activity)), 1.1; with P. aeruginosa (planktonic P. aeruginosa, 50 μM final drug concentration, positive cutoff 3-fold increase, read-out: AK-based Prestwick library screening result, P. aeruginosa (fold increase in extracellular AK activity)), 1.1; in experiment [1] (planktonic S. aureus, 50 μM final drug concentration, positive cutoff 3-fold increase, read-out: AK-based Prestwick library screening result, S. aureus (fold increase in extracellular AK activity)), 1.1. Besides, the fold induction at 50 µM in experiment [2] (planktonic A. baumannii, 50 μM final drug concentration, positive cutoff 3-fold increase, read-out: AK-based Prestwick library screening result, A. baumannii (fold increase in extracellular AK activity)) worked out at 1.

As to `COc1cc(C(=O)OCCCN2CCCN(CCCOC(=O)c3cc(OC)c(OC)c(OC)c3)CC2)cc(OC)c1OC` [Dilazep dihydrochloride], the fold induction at 50 µM came out at 1.1 in the experiment with E. faecium (setting [4]); 1.5 in the experiment on E. coli (setting [5]); 1.1 in the experiment on E. cloacae (setting [6]); 1.4 in the experiment with K. pneumoniae (setting [7]); 1.3 in the experiment with P. aeruginosa (setting [8]); 1.2 in experiment [1] (setting [9]). Also, the fold induction at 50 µM in experiment [2] (setting [10]) is 1.4.

For the compound `O=c1[nH]cnc2c1ncn2[C@H]1CC[C@@H](CO)O1` [Didanosine], the fold induction at 50 µM in the experiment on E. faecium (setting [4]) came to 0.9; with E. coli (planktonic E. coli, 50 μM final drug concentration, 384-well, […], read-out: AK-based Prestwick Library Screening Results: E. coli (increase in extracellular AK activity)) it was 4.7; in the experiment on E. cloacae (setting [6]) it was 4.2; in the experiment with K. pneumoniae (setting [7]), 0.9; in the experiment with P. aeruginosa (setting [8]), 1; in experiment [1] (setting [9]), 1.2. Further, the fold induction at 50 µM in experiment [2] (setting [10]) turned out to be 1.5.

Regarding `CC1COc2c(N3CCN(C)CC3)c(F)cc3c(=O)c(C(=O)O)cn1c23` (stereo not shown) [Ofloxacin], the fold induction at 50 µM turned out to be 1.4 in the experiment with E. faecium (setting [4]); 15.7 with E. coli (setting [5]); 4.1 in the experiment with E. cloacae (setting [6]); 1 in the experiment with K. pneumoniae (setting [7]); 20 in the experiment on P. aeruginosa (setting [8]); 2.8 in experiment [1] (setting [9]). Further, in experiment [2] (setting [10]), the fold induction at 50 µM came out at 3.7.

In the case of Viomycin sulfate, in the experiment with E. faecium (planktonic E. faecium, 50 μM final drug concentration, […]), the “AK-based Prestwick library screening result, E. faecium (fold increase in extracellular AK activity)” value was 1.0. In addition, the “AK-based Prestwick library screening result, E. coli (fold increase in extracellular AK activity)” value with E. coli (setting [11]) is 1.0. Also, the “AK-based Prestwick library screening result, E. cloacae (fold increase in extracellular AK activity)” value in the experiment on E. cloacae (planktonic E. cloacae, 50 μM final drug concentration, […]) is 1.6. Moreover, in the experiment with K. pneumoniae (planktonic K. pneumoniae, 50 μM final drug concentration, […]), the “AK-based Prestwick library screening result, K. pneumoniae (fold increase in extracellular AK activity)” value was found to be 0.9. Moreover, in the experiment on P. aeruginosa (planktonic P. aeruginosa, 50 μM final drug concentration, […]), the “AK-based Prestwick library screening result, P. aeruginosa (fold increase in extracellular AK activity)” value is given as 0.9. In addition, the “AK-based Prestwick library screening result, S. aureus (fold increase in extracellular AK activity)” value in experiment [1] (planktonic S. aureus, 50 μM final drug concentration, […]) is recorded as 1.3. Besides, the “AK-based Prestwick library screening result, A. baumannii (fold increase in extracellular AK activity)” value in experiment [2] (planktonic A. baumannii, 50 μM final drug concentration, […]) is recorded as 1.1.

On to `NC(=O)N1c2ccccc2C=Cc2ccccc21` [Carbamazepine], for which the fold induction at 50 µM was found to be 0.8 in the experiment with E. faecium (setting [4]); 1 with E. coli (setting [5]); 1.5 in the experiment on E. cloacae (setting [6]); 0.9 in the experiment with K. pneumoniae (setting [7]); 1 with P. aeruginosa (setting [8]); 1 in experiment [1] (setting [9]). Besides, the fold induction at 50 µM in experiment [2] (setting [10]) stood at 0.9.

As for `CNC(=O)c1c(I)c(C(=O)NCC(=O)Nc2c(I)c(C(=O)O)c(I)c(C(=O)NCCO)c2I)c(I)c(N(C)C(C)=O)c1I` [loxaglic acid], the “AK-based Prestwick library screening result, E. faecium (fold increase in extracellular AK activity)” value with E. faecium (planktonic E. faecium, 50 μM final drug concentration, positive cutoff 3-fold increase) was determined as 0.9. Also, the “AK-based Prestwick library screening result, E. coli (fold increase in extracellular AK activity)” value in the experiment on E. coli (setting [11]) came out at 0.9. Further, the “AK-based Prestwick library screening result, E. cloacae (fold increase in extracellular AK activity)” value in the experiment with E. cloacae (planktonic E. cloacae, 50 μM final drug concentration, positive cutoff 3-fold increase) is reported as 1.1. Moreover, in the experiment with K. pneumoniae (planktonic K. pneumoniae, 50 μM final drug concentration, positive cutoff 3-fold increase), the “AK-based Prestwick library screening result, K. pneumoniae (fold increase in extracellular AK activity)” value amounted to 0.8. In addition, in the experiment on P. aeruginosa (planktonic P. aeruginosa, 50 μM final drug concentration, positive cutoff 3-fold increase), the “AK-based Prestwick library screening result, P. aeruginosa (fold increase in extracellular AK activity)” value stood at 0.8. Further, in experiment [1] (planktonic S. aureus, 50 μM final drug concentration, positive cutoff 3-fold increase), the “AK-based Prestwick library screening result, S. aureus (fold increase in extracellular AK activity)” value is given as 0.6. Besides, in experiment [2] (planktonic A. baumannii, 50 μM final drug concentration, positive cutoff 3-fold increase), the “AK-based Prestwick library screening result, A. baumannii (fold increase in extracellular AK activity)” value came out at 0.8.

`N=C(N)NC(=O)Cc1c(Cl)cccc1Cl` [Guanfacine hydrochloride]: the fold induction at 50 µM with E. faecium (planktonic E. faecium, 50 μM final drug concentration, cutoff for positive-scoring molecules 3-fold increase, read-out: AK-based Prestwick Library Screening Results, E. faecium (increase in extracellular AK activity)) was 1.1; in the experiment with E. coli (planktonic E. coli, 50 μM final drug concentration, cutoff for positive-scoring molecules 3-fold increase, read-out: AK-based Prestwick Library Screening Results, E. coli (increase in extracellular AK activity)) it was 0.8; with E. cloacae (planktonic E. cloacae, 50 μM final drug concentration, cutoff for positive-scoring molecules 3-fold increase, read-out: AK-based Prestwick Library Screening Results, E. cloacae (increase in extracellular AK activity)) it was 0.9; in the experiment with K. pneumoniae (planktonic K. pneumoniae, 50 μM final drug concentration, cutoff for positive-scoring molecules 3-fold increase, read-out: AK-based Prestwick Library Screening Results, K. pneumoniae (increase in extracellular AK activity)), 0.5; with P. aeruginosa (planktonic P. aeruginosa, 50 μM final drug concentration, cutoff for positive-scoring molecules 3-fold increase, read-out: AK-based Prestwick Library Screening Results, P. aeruginosa (increase in extracellular AK activity)), 0.7; in experiment [1] (planktonic S. aureus, 50 μM final drug concentration, cutoff for positive-scoring molecules 3-fold increase, read-out: AK-based Prestwick Library Screening Results, S. aureus (increase in extracellular AK activity)), 0.6. For the same compound, in experiment [2] (planktonic A. baumannii, 50 μM final drug concentration, cutoff for positive-scoring molecules 3-fold increase, read-out: AK-based Prestwick Library Screening Results, A. baumannii (increase in extracellular AK activity)), the fold induction at 50 µM worked out at 0.7.

The record behind these values is patent US10004701B2, “Methods and compositions for treating infection” (UNIVERSITY OF ROCHESTER, priority 2012, dated 2018).
